Measurements published in US9994865B2, “PEG-Prom mediated surface expression of avidin/streptavidin” (The Johns Hopkins University, priority 2013, dated 2018).

Key:
[1] = tested on: avidin-expressing and non-expressing tumor cells; details: expected outcome; LD50 against expressing vs. non-expressing cells
Description: The LD50 against avidin-expressing and non-expressing tumor cells of each will be evaluated, in vitro. The maximum tolerated dose and anti-tumor efficacy of each will also be evaluated in PCa models. […] Upon necropsy, tumor xenografts will be pathologically analyzed to evaluate cell killing. […] Tumor size will be measured with calipers, or with BLI in the case of g- or fLuc-expressing cells.

tumors and metastases = details: prior studies, adenovirus-based oncolytic gene delivery, nude mice; cited from earlier work

Molecule | specificity of cell killing to avidin expressing cells [1] | effect on tumors and metastases (tumors and metastases)
^90Y-CHX-A-DTPA-biotin [^90Y conjugate] | less specific to avidin expressing cells | 
^213Bi-CHX-A-DTPA-biotin [^213Bi conjugate] | highly specific to expressing cells | 
MDA-7/IL-24: melanoma differentiation associated gene-7/Interleukin-24, immunomodulatory cytokine, delivered by adenovirus (protein, UniProt Q13007 52-206, looked up, adenovirus-delivered, melanoma differentiation associated gene-7/Interleukin-24, immunomodulatory cytokine, delivered by adenovirus) Interleukin-24: QEFHFGPCQVKGVVPQKLWEAFWAVKDTMQAQDNITSARLLQQEVLQNVSDAESCYLVHTLLEFYLKTVFKNYHNRTVEVRTLKSFSTLANNFVLIVSQLQPSQENEMFSIRDSAHRRFLLFRRAFKQLDVEAALTKALGEVDILLTWMQKFYKL |  | complete eradication of tumors and metastases
